# According to US6525059B1, “Substituted pyrazoles as p38 kinase inhibitors” (G. D. Searle & Company, priority 1998, dated 2003):
# Like-named read-outs stand apart in the source and are kept apart here.
# How the values were obtained:
# human p38 kinase alpha = molecular target: T1, human p38 kinase alpha (Homo sapiens, UniProt Q16539); assay: p38 kinase in vitro assay, phosphorylation of biotinylated PHAS-I with gamma 32P-ATP; format: biochemical; conditions: for inhibition at 1 µM: read-out: P38 alpha kinase % inhib @ conc.
# T1 construct: The coding region of the human p38a cDNA was obtained by PCR-amplification from RNA isolated from the human monocyte cell line THP.1; GST (N); made in house; host or cells: E. coli DH10B
# T1 sequence (Q16539 whole entry): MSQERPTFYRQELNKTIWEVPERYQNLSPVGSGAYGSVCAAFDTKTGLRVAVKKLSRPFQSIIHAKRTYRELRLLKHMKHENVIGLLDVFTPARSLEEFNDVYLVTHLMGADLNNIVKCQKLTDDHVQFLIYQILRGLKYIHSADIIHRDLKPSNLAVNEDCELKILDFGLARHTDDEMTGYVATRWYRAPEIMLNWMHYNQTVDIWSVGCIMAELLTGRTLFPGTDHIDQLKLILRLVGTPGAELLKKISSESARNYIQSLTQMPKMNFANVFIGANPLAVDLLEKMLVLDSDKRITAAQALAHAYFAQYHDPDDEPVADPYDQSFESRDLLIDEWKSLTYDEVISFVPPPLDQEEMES
# Method in brief: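 MKK6-activated human p38α phosphorylates biotinylated PHAS-I with γ-32P-ATP in 25 mM HEPES pH 7.5, 10 mM Mg acetate, 50 μM unlabeled ATP, 1% DMSO, 30 °C for 1 h or overnight. Compounds at 100–0.001 μM (10-fold steps, triplicate); substrate captured on streptavidin filter plates and counted by scintillation.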
# TNF-α = assay: LPS stimulation of TNF production by U937 cells; format: cell-based, human; conditions: for inhibition at 1 µM / IC50: Homo sapiens; for inhibition at 1 µM: U-937, @ 1.0 uM, read-out: U937 Cell % inhib @ conc.; for U937 Cell % inhib @ conc.: @ 1.0 uM
# Method in brief: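 PMA-differentiated human U937 cells (20 ng/ml PMA, 24 h, then 24-48 h rest) at 2 million cells/ml, 0.1% DMSO final, stimulated with E. coli LPS (100 ng/ml final) for 4 h at 37° C. TNF-α in medium measured by ELISA; IC50 in μM.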
# [1] = read-out: P38 alpha kinase IC50
# [2] = U-937, TNF production, LPS-stimulated human U937 cells, read-out: U937 Cell IC50
# [3] = p38α in vitro, PHAS-I assay procedure, read-out: p38^1 IC50
# [4] = U-937, LPS-stimulated U937 cells, read-out: U937 IC50
SMILES,IC50 (human p38 kinase alpha; [1]) [nM],inhibition at 1 µM (TNF-α) [%],other results
C[C@@H](NS(=O)(=O)c1ccc(F)cc1Cl)c1[nH]nc(-c2ccc(F)cc2)c1-c1ccncc1 [Example B-0449],830,81,
O=S(=O)(NCc1[nH]nc(-c2ccc(F)cc2)c1-c1ccncc1)c1ccccc1Cl [Example B-0240],200,70,
O=C(NCc1[nH]nc(-c2ccc(F)cc2)c1-c1ccncc1)c1ccc(Cl)cc1Cl [Example B-0291],1330,20,
O=S(=O)(NCc1[nH]nc(-c2ccc(F)cc2)c1-c1ccncc1)c1ccc2ccccc2c1 [Example B-0110],,13,inhibition at 1 µM (human p38 kinase alpha): 66%
C[C@@H](NS(=O)(=O)c1ccccc1S(C)(=O)=O)c1[nH]nc(-c2ccc(F)cc2)c1-c1ccncc1 [Example B-0489],300,80,
C[C@@H](NS(=O)(=O)c1cc(Cl)c(Cl)s1)c1[nH]nc(-c2ccc(F)cc2)c1-c1ccncc1 [Example B-0452],700,75,
CC(NS(=O)(=O)CC12CCC(CC1=O)C2(C)C)c1[nH]nc(-c2ccc(F)cc2)c1-c1ccncc1 (stereo not drawn) [Example B-0434],120,65,
Cc1ccc(S(=O)(=O)NCc2[nH]nc(-c3ccc(F)cc3)c2-c2ccncc2)cc1 [Example B-0118],1180,,IC50 (TNF-α; [2]): 1290 nM
O=C(NCc1[nH]nc(-c2ccc(F)cc2)c1-c1ccncc1)c1ccccc1Br [Example B-0301],190,50,
Cc1ccc(C(=O)NC(C)c2[nH]nc(-c3ccc(F)cc3)c2-c2ccncc2)cc1 (stereo not drawn) [Example B-0671],6380,,U937 Cell % inhib @ conc. (TNF-α): 36.0% @ 1.0 uM
C[C@@H](NC(=O)c1cccc(Cl)c1Cl)c1[nH]nc(-c2ccc(F)cc2)c1-c1ccncc1 [Example B-0504],400,43,
CC(C)S(=O)(=O)NCc1[nH]nc(-c2ccc(F)cc2)c1-c1ccncc1 [Example B-0106],,,inhibition at 1 µM (human p38 kinase alpha): 62%; IC50 (TNF-α; [2]): 5000 nM
C[C@@H](NS(=O)(=O)c1cccc2ccccc12)c1[nH]nc(-c2ccc(F)cc2)c1-c1ccncc1 [Example B-0441],800,58,
CC(C)OC(=O)N[C@H](C)c1[nH]nc(-c2ccc(F)cc2)c1-c1ccncc1 [Example B-0429],270,45,
O=S(=O)(NCc1[nH]nc(-c2ccc(F)cc2)c1-c1ccncc1)c1ccccc1C(F)(F)F [Example B-0236],77,46,
CCCC(CCC)C(=O)NCc1[nH]nc(-c2ccc(F)cc2)c1-c1ccncc1 [Example B-0057],,29,inhibition at 1 µM (human p38 kinase alpha): 96%
O=C(NCc1[nH]nc(-c2ccc(F)cc2)c1-c1ccncc1)c1ccc(F)c(C(F)(F)F)c1 [Example B-0287],4000,22,
CC(NC(=O)c1cc(F)cc(C(F)(F)F)c1)c1[nH]nc(-c2ccc(F)cc2)c1-c1ccncc1 (stereo not drawn) [Example B-0690],27100,,U937 Cell % inhib @ conc. (TNF-α): 36.0% @ 1.0 uM
O=S(=O)(NCc1[nH]nc(-c2ccc(F)cc2)c1-c1ccncc1)c1ccc(F)c(Cl)c1 [Example B-0242],< 100,78,
O=C(NCc1[nH]nc(-c2ccc(F)cc2)c1-c1ccncc1)Nc1ccccc1-c1ccccc1 [Example B-0181],,2,inhibition at 1 µM (human p38 kinase alpha): 5%
"CCN(CC)CCn1cc(-c2ccncc2)c(-c2ccc(F)cc2)n1 [Example A-284, N,N-diethyl-3-(4-fluorophenyl)-4-(4-pyridinyl)-1H-pyrazole-1-ethanamine]",,,IC50 (human p38 kinase alpha; [3]): 980 nM; IC50 (TNF-α; [4]): 509 nM
C[C@@H](NS(=O)(=O)c1ccc(F)cc1F)c1[nH]nc(-c2ccc(F)cc2)c1-c1ccncc1 [Example B-0390],89,55,
C[C@@H](NC(=O)Nc1ccc(F)cc1)c1[nH]nc(-c2ccc(F)cc2)c1-c1ccncc1 [Example B-0406],540,35,

SMILES,IC50 (human p38 kinase alpha; [1]) [nM],inhibition at 1 µM (TNF-α) [%],other results
CC(C)c1cc(C(C)C)c(C(=O)NCc2[nH]nc(-c3ccc(F)cc3)c2-c2ccncc2)c(C(C)C)c1 [Example B-0272],1810,48,
O=C(NCc1[nH]nc(-c2ccc(F)cc2)c1-c1ccncc1)c1cccc(OC(F)(F)F)c1 [Example B-0060],,22,inhibition at 1 µM (human p38 kinase alpha): 73%
"C#CCNc1[nH]nc(-c2ccc(F)cc2)c1-c1ccncc1 [Example A-288, 5-(4-fluorophenyl)-N-2-propynyl-4-(4-pyridinyl)-1H-pyrazol-3-amine]",,,IC50 (human p38 kinase alpha; [3]): 17 nM; IC50 (TNF-α; [4]): 300 nM
C[C@@H](NC(=O)c1ccccc1Br)c1[nH]nc(-c2ccc(F)cc2)c1-c1ccncc1 [Example B-0526],31,87,
O=C(NCc1[nH]nc(-c2ccc(F)cc2)c1-c1ccncc1)c1ccc(F)cc1F [Example B-0299],870,54,
CCCCOc1ccc(S(=O)(=O)NCc2[nH]nc(-c3ccc(F)cc3)c2-c2ccncc2)cc1 [Example B-0129],,31,inhibition at 1 µM (human p38 kinase alpha): 51%
Cc1ccc(C)c(S(=O)(=O)N[C@H](C)c2[nH]nc(-c3ccc(F)cc3)c2-c2ccncc2)c1 [Example B-0468],31,93,
O=C(NCc1[nH]nc(-c2ccc(F)cc2)c1-c1ccncc1)c1cc(C(F)(F)F)ccc1F [Example B-0281],7370,24,
COc1ccccc1C(=O)N[C@H](C)c1[nH]nc(-c2ccc(F)cc2)c1-c1ccncc1 [Example B-0367],1000,23,
O=C(NCc1[nH]nc(-c2ccc(F)cc2)c1-c1ccncc1)c1cccc2ccccc12 [Example B-0275],2670,33,
C[C@@H](NC(=O)c1c(F)cccc1C(F)(F)F)c1[nH]nc(-c2ccc(F)cc2)c1-c1ccncc1 [Example B-0509],100,86,
Cc1c(Cl)cccc1S(=O)(=O)N[C@H](C)c1[nH]nc(-c2ccc(F)cc2)c1-c1ccncc1 [Example B-0447],190,71,
Cc1cccc(C)c1NC(=O)NCc1[nH]nc(-c2ccc(F)cc2)c1-c1ccncc1 [Example B-0168],,,inhibition at 1 µM (human p38 kinase alpha): 44%; IC50 (TNF-α; [2]): 2360 nM
"COC(=O)CNc1n[nH]c(-c2ccc(F)cc2)c1-c1ccncc1 [Example A-292, N-[5-(4-fluorophenyl)-4-(4-pyridinyl)-1H-pyrazol-3-yl]glycine methyl ester]",,,IC50 (human p38 kinase alpha; [3]): 1150 nM; IC50 (TNF-α; [4]): > 10000 nM
"OCCCNc1cc(-c2c[nH]nc2-c2ccc(F)cc2)ccn1 [Example A-282, 3-[[4-[3-(4-fluorophenyl)-1H-pyrazol-4-yl]-2-pyridinyl]amino]-1-propanol]",,,IC50 (human p38 kinase alpha; [3]): 45 nM; IC50 (TNF-α; [4]): 97.3 nM
O=C(NCc1[nH]nc(-c2ccc(F)cc2)c1-c1ccncc1)c1cccc(Cl)c1 [Example B-0300],780,32,
CC(C)c1ccc(S(=O)(=O)NCc2[nH]nc(-c3ccc(F)cc3)c2-c2ccncc2)cc1 [Example B-0123],,,inhibition at 1 µM (human p38 kinase alpha): 59%; IC50 (TNF-α; [2]): > 1000 nM
CCCCOc1ccc(S(=O)(=O)N[C@H](C)c2[nH]nc(-c3ccc(F)cc3)c2-c2ccncc2)cc1 [Example B-0456],1810,67,
COc1ccc(S(=O)(=O)NCc2[nH]nc(-c3ccc(F)cc3)c2-c2ccncc2)c([N+](=O)[O-])c1 [Example B-0141],,10,inhibition at 1 µM (human p38 kinase alpha): 78%
CNC(=O)N[C@H](C)c1[nH]nc(-c2ccc(F)cc2)c1-c1ccncc1 [Example B-0408],500,50,
C[C@@H](NC(=O)c1cc(F)cc(F)c1)c1[nH]nc(-c2ccc(F)cc2)c1-c1ccncc1 [Example B-0502],65,48,
C[C@@H](NC(=O)NCc1ccccc1)c1[nH]nc(-c2ccc(F)cc2)c1-c1ccncc1 [Example B-0403],1770,,IC50 (TNF-α; [2]): 2420 nM
